Experimental data from patent publication US20080207450A1, “Method of Substantially Preventing or Inhibiting Summer Bentgrass Decline” (priority 2007, published 2008).

Test system: Creeping bentgrass
Test: Outdoor bentgrass bed exposed to elevated atmospheric carbon dioxide over summer; visual quality and root depth
Assay type: in vivo, Agrostis stolonifera
Conditions: about 700 ppm carbon dioxide from daylight until dark, July and August
Experimental: In the fall, the inventors established an outdoor bed of bentgrass in Lincoln Parish, La. This region has an average daily high temperature in July and August of 93° F. (www.enlou.com/econ/lincoln_econ.htm). The bed of bentgrass established by the inventors was a randomized block comprising three varieties of Creeping bentgrass: Penn A1 (Agrostis stolonifera ‘Penn A-1’), Penn A2, (Agrostis stolonifera ‘Penn A-2’) and Penn A4 (Agrostis stolonifera ‘Penn A-4’). The bentgrass bed was maintained over the winter. During the following July and August, the inventors constructed a conduit system through which carbon dioxide was pumped over a portion of the bentgrass bed (test zone). The conduit system comprised a plurality of hollow PVC pipes, each pipe having an approximate length of 72 inches and an approximate diameter of ¾ of an inch. Several of the pipes were affixed to each other to form the perimeter of a support platform having a rectangular shape. The remaining pipes were arranged in a parallel fashion and affixed within the support platform. […] The carbon dioxide concentrations in both zones were monitored via a standard, commercially available gas analyzer. At the end of August, both the treated and non-treated areas of the bentgrass were assayed visually for quality and also measured for root-depth.

**Q.** What does the source list for O=C=O [carbon dioxide]?
**A.** length of sample root (sample root from test zone, measured at end of August): approximately 10.75 inches; visual quality of bentgrass (test zone, Lincoln Parish, La., assayed at end of August, varieties Penn A1, A2, A4): did not experience a loss in quality
